Reference: US20150105252A1, “SUBSTITUTED PYRAZOLES AS HERBICIDES” (E I DU PONT DE NEMOURS AND COMPANY, priority 2013, published 2015)

Tests used:
barnyardgrass [1] = assay: Test A preemergence; assay type: in vivo, Echinochloa crus-galli; conditions: preemergence; for Barnyardgrass plant response rating (0 to 100 scale, 0 is no effect, 100 is complete control): 125 g ai/ha, visual injury approx. 10 days after treatment; for Barnyardgrass plant response rating: 500 g ai/ha, visual injury after approx. 10 days, 0 to 100 scale (0 no effect, 100 complete control)
Summary of the method: (§1)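 Seeds were sown in a loam soil–sand blend and given a directed soil spray preemergence; postemergence plants at 2–10 cm, one- to two-leaf stage, were sprayed with compound in non-phytotoxic solvent with surfactant. After about 10 days in a greenhouse, injury was visually rated against untreated controls (0 = no effect, 100 = complete control).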

crabgrass, large [2] = assay: Test A preemergence; assay type: in vivo, Digitaria sanguinalis; conditions: preemergence; for Crabgrass, Large plant response rating (0 to 100 scale): 125 g ai/ha, visual injury approx. 10 days after treatment; for Crabgrass, Large plant response rating: 500 g ai/ha, visual injury after approx. 10 days, 0 to 100 scale (0 no effect, 100 complete control)
Summary of the method: as §1

foxtail, giant [3] = assay: Test A preemergence; assay type: in vivo, Setaria faberii; conditions: preemergence; for Foxtail, Giant plant response rating (0 to 100 scale): 125 g ai/ha, visual injury approx. 10 days after treatment; for Foxtail, Giant plant response rating: 500 g ai/ha, visual injury after approx. 10 days, 0 to 100 scale (0 no effect, 100 complete control)
Summary of the method: as §1

morningglory [4] = assay: Test A preemergence; assay type: in vivo, Ipomoea spp.; conditions: preemergence; for Morningglory plant response rating (0 to 100 scale): 125 g ai/ha, visual injury approx. 10 days after treatment; for Morningglory plant response rating: 500 g ai/ha, visual injury after approx. 10 days, 0 to 100 scale (0 no effect, 100 complete control)
Summary of the method: as §1

pigweed [5] = assay: Test A preemergence; assay type: in vivo, Amaranthus retroflexus; conditions: preemergence; for Pigweed plant response rating (0 to 100 scale): 125 g ai/ha, visual injury approx. 10 days after treatment; for Pigweed plant response rating: 500 g ai/ha, visual injury after approx. 10 days, 0 to 100 scale (0 no effect, 100 complete control)
Summary of the method: as §1

velvetleaf [6] = assay: Test A preemergence; assay type: in vivo, Abutilon theophrasti; conditions: preemergence; for Velvetleaf plant response rating (0 to 100 scale): 125 g ai/ha, visual injury approx. 10 days after treatment; for Velvetleaf plant response rating: 500 g ai/ha, visual injury after approx. 10 days, 0 to 100 scale (0 no effect, 100 complete control)
Summary of the method: as §1

wheat [7] = assay: Test A preemergence; assay type: in vivo, Triticum aestivum; conditions: preemergence; for Wheat plant response rating (0 to 100 scale): 125 g ai/ha, visual injury approx. 10 days after treatment; for Wheat plant response rating: 500 g ai/ha, visual injury after approx. 10 days, 0 to 100 scale (0 no effect, 100 complete control)
Summary of the method: as §1

corn [8] = assay: Test A preemergence; assay type: in vivo, Zea mays; conditions: preemergence; for Corn plant response rating (0 to 100 scale): 125 g ai/ha, visual injury approx. 10 days after treatment; for Corn plant response rating: 500 g ai/ha, visual injury after approx. 10 days, 0 to 100 scale (0 no effect, 100 complete control)
Summary of the method: as §1

barnyardgrass [9] = assay: Test A postemergence; assay type: in vivo, Echinochloa crus-galli
Summary of the method: as §1

crabgrass, large [10] = assay: Test A postemergence; assay type: in vivo, Digitaria sanguinalis
Summary of the method: as §1

foxtail, giant [11] = assay: Test A postemergence; assay type: in vivo, Setaria faberii
Summary of the method: as §1

morningglory [12] = assay: Test A postemergence; assay type: in vivo, Ipomoea spp.; conditions: Postemergence
Summary of the method: as §1

pigweed [13] = assay: Test A postemergence; assay type: in vivo, Amaranthus retroflexus; conditions: Postemergence
Summary of the method: as §1

velvetleaf [14] = assay: Test A postemergence; assay type: in vivo, Abutilon theophrasti; conditions: Postemergence
Summary of the method: as §1

wheat [15] = assay: Test A postemergence; assay type: in vivo, Triticum aestivum; conditions: Postemergence
Summary of the method: as §1

corn [16] = assay: Test A postemergence; assay type: in vivo, Zea mays
Summary of the method: as §1

rice = assay: Test B flood; assay type: in vivo, Oryza sativa; conditions: 250 g ai/ha, visual rating on 0 to 100 scale (0 no effect, 100 complete control), 13 to 15 days
Summary of the method: (§2)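 Two-leaf-stage plants, pots flooded (3 cm above soil) and treated through the water, which stayed at that depth. After 13–15 days in greenhouse conditions, visual assessment versus controls: 0 is no effect, 100 complete control, dash means no result.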

sedge, umbrella = assay: Test B flood; assay type: in vivo, Cyperus difformis; conditions: 250 g ai/ha, visual rating on 0 to 100 scale (0 no effect, 100 complete control), 13 to 15 days
Summary of the method: as §2

ducksalad = assay: Test B flood; assay type: in vivo, Heteranthera limosa; conditions: 250 g ai/ha, visual rating on 0 to 100 scale (0 no effect, 100 complete control), 13 to 15 days
Summary of the method: as §2

barnyardgrass [17] = assay: Test B flood; assay type: in vivo, Echinochloa crus-galli; conditions: 250 g ai/ha, visual rating on 0 to 100 scale (0 no effect, 100 complete control), 13 to 15 days
Summary of the method: as §2

[18] = Postemergence, 500 g ai/ha, 0 to 100 scale (0 no effect, 100 complete control)
[19] = postemergence, 125 g ai/ha, about 10 days, visual rating on 0 to 100 scale (0 no effect, 100 complete control)
[20] = 125 g ai/ha, 0 to 100 scale, 0 no effect, 100 complete control
[21] = 500 g ai/ha, 0 to 100 scale (0 no effect, 100 complete control)
[22] = Postemergence, 125 g ai/ha, 0 to 100 scale, 0 no effect, 100 complete control

Row | SMILES | Barnyardgrass plant response rating (0 to 100 scale, 0 is no effect, 100 is complete control) (barnyardgrass [1]) | Barnyardgrass plant response rating (barnyardgrass [1]) | Crabgrass, Large plant response rating (0 to 100 scale) (crabgrass, large [2]) | Crabgrass, Large plant response rating (crabgrass, large [2]) | Foxtail, Giant plant response rating (0 to 100 scale) (foxtail, giant [3]) | Foxtail, Giant plant response rating (foxtail, giant [3]) | Morningglory plant response rating (0 to 100 scale) (morningglory [4]) | Pigweed plant response rating (0 to 100 scale) (pigweed [5]) | Velvetleaf plant response rating (0 to 100 scale) (velvetleaf [6]) | Wheat plant response rating (0 to 100 scale) (wheat [7]) | Corn plant response rating (0 to 100 scale) (corn [8]) | Corn plant response rating (corn [8]) | Barnyardgrass plant response rating (barnyardgrass [9]; [18]) | Crabgrass, Large plant response rating (crabgrass, large [10]; [18]) | Foxtail, Giant plant response rating (foxtail, giant [11]; [18]) | Morningglory plant response rating (morningglory [12]; [20]) | Morningglory plant response rating (morningglory [12]; [21]) | Pigweed plant response rating (pigweed [13]; [20]) | Pigweed plant response rating (pigweed [13]; [21]) | Velvetleaf plant response rating (velvetleaf [14]; [20]) | also measured
1 | CCCNC(=O)c1cc(I)n(Cc2cccc(C(F)(F)F)c2)n1 [Compound 183] | 0 | 10 | 10 | 80 | 10 | 50 | 0 | 10 | 0 | 0 | 0 | 0 | 20 | 20 | 20 | 10 | 90 | 90 | 80 | 10 | Morningglory plant response rating (morningglory [4]): 0; Pigweed plant response rating (pigweed [5]): 50; Velvetleaf plant response rating (velvetleaf [6]): 0; Wheat plant response rating (wheat [7]): 0; Barnyardgrass plant response rating (barnyardgrass [9]; [19]): 10; Crabgrass, Large plant response rating (crabgrass, large [10]; [19]): 10; Foxtail, Giant plant response rating (foxtail, giant [11]; [19]): 10; Velvetleaf plant response rating (velvetleaf [14]; [21]): 40; Wheat plant response rating (wheat [15]; [20]): 0; Wheat plant response rating (wheat [15]; [21]): 0; Corn plant response rating (corn [16]; [18]): 10; Corn plant response rating (corn [16]; [19]): 0; Plant response rating, Rice (rice): 0; Plant response rating, Sedge, Umbrella (sedge, umbrella): 0; Plant response rating, Ducksalad (ducksalad): 0; Plant response rating, Barnyardgrass (barnyardgrass [17]): 0
2 | CCCCc1cc(C(=O)NCCC)nn1Cc1ccnc(C(F)(F)F)c1 [Compound 190] | 0 | 60 | 80 | 100 | 20 | 90 | 0 | 100 | 0 | 0 | 0 | 0 | 60 | 70 | 60 | 100 | 90 | 100 | 90 | 100 | Morningglory plant response rating (morningglory [4]): 30; Pigweed plant response rating (pigweed [5]): 100; Velvetleaf plant response rating (velvetleaf [6]): 20; Wheat plant response rating (wheat [7]): 0; Barnyardgrass plant response rating (barnyardgrass [9]; [19]): 10; Crabgrass, Large plant response rating (crabgrass, large [10]; [19]): 20; Foxtail, Giant plant response rating (foxtail, giant [11]; [19]): 20; Velvetleaf plant response rating (velvetleaf [14]; [21]): 80; Wheat plant response rating (wheat [15]; [20]): 80; Wheat plant response rating (wheat [15]; [21]): 10; Corn plant response rating (corn [16]; [18]): 40; Corn plant response rating (corn [16]; [19]): 10; Plant response rating, Rice (rice): 0; Plant response rating, Sedge, Umbrella (sedge, umbrella): 45; Plant response rating, Ducksalad (ducksalad): 0; Plant response rating, Barnyardgrass (barnyardgrass [17]): 0
3 | CCCNC(=O)c1cc(C)n(Cc2ccnc(C(F)(F)F)c2)n1 [Compound 191] | 20 | 100 | 100 | 100 | 100 | 100 | 90 | 100 | 10 | 0 | 10 | 60 | 100 | 90 | 90 | 90 | 90 | 100 | 100 | 90 | Morningglory plant response rating (morningglory [4]): 100; Pigweed plant response rating (pigweed [5]): 100; Velvetleaf plant response rating (velvetleaf [6]): 100; Wheat plant response rating (wheat [7]): 70; Barnyardgrass plant response rating (barnyardgrass [9]; [19]): 70; Crabgrass, Large plant response rating (crabgrass, large [10]; [19]): 80; Foxtail, Giant plant response rating (foxtail, giant [11]; [19]): 80; Velvetleaf plant response rating (velvetleaf [14]; [21]): 100; Wheat plant response rating (wheat [15]; [20]): 80; Wheat plant response rating (wheat [15]; [21]): 60; Corn plant response rating (corn [16]; [18]): 100; Corn plant response rating (corn [16]; [19]): 60; Plant response rating, Rice (rice): 0; Plant response rating, Sedge, Umbrella (sedge, umbrella): 55; Plant response rating, Ducksalad (ducksalad): 80; Plant response rating, Barnyardgrass (barnyardgrass [17]): 0
4 | CCc1cc(C(=O)NN(C)C)nn1Cc1ccnc(C(F)(F)F)c1 [Compound 192] | 0 | 0 | 0 | 10 | 0 | 0 | 0 | 0 | 0 | 0 | 0 | 0 | 30 | 20 | 30 | 30 | 90 | 80 | 90 | 50 | Morningglory plant response rating (morningglory [4]): 10; Pigweed plant response rating (pigweed [5]): 0; Velvetleaf plant response rating (velvetleaf [6]): 0; Wheat plant response rating (wheat [7]): 0; Barnyardgrass plant response rating (barnyardgrass [9]; [19]): 10; Crabgrass, Large plant response rating (crabgrass, large [10]; [19]): 10; Foxtail, Giant plant response rating (foxtail, giant [11]; [19]): 10; Velvetleaf plant response rating (velvetleaf [14]; [21]): 80; Wheat plant response rating (wheat [15]; [20]): 0; Wheat plant response rating (wheat [15]; [21]): 10; Corn plant response rating (corn [16]; [18]): 50; Corn plant response rating (corn [16]; [19]): 20; Plant response rating, Rice (rice): 0; Plant response rating, Sedge, Umbrella (sedge, umbrella): 0; Plant response rating, Ducksalad (ducksalad): 0; Plant response rating, Barnyardgrass (barnyardgrass [17]): 0
5 | CCc1cc(C(=O)NC2CC2)nn1Oc1cccc(C(F)(F)F)c1 [Compound 215] | 0 | 60 | 50 | 100 | 10 | 70 | 0 | 10 | 0 | 0 | 0 | 0 | 40 | 60 | 70 | 30 | 100 | 40 | 90 | 10 | Barnyardgrass plant response rating (barnyardgrass [9]; [22]): 10; Crabgrass, Large plant response rating (crabgrass, large [10]; [22]): 10; Foxtail, Giant plant response rating (foxtail, giant [11]; [22]): 10; Velvetleaf plant response rating (velvetleaf [14]; [21]): 60; Wheat plant response rating (wheat [15]; [20]): 0; Wheat plant response rating (wheat [15]; [21]): 10; Corn plant response rating (corn [16]; [22]): 10; Corn plant response rating (corn [16]; [18]): 20; Plant response rating, Rice (rice): 10; Plant response rating, Sedge, Umbrella (sedge, umbrella): 20; Plant response rating, Ducksalad (ducksalad): 30; Plant response rating, Barnyardgrass (barnyardgrass [17]): 0
